Measurements from patent US11912695B2, “Benzodiazepine derivatives as RSV inhibitors” (ENANTA PHARMACEUTICALS, INC., priority 2019, dated 2024).

Tests used:
[1] = test system: Human RSV-A (“Long” strain); assay: RSV-A assay (CPE, ATPlite) in Hep-2 cells; type: cell-based; conditions: human respiratory syncytial virus, 120 h, MOI 0.1, 5-day incubation, ATPlite readout
From the text: Hep-2 cells, (originally derived from tumors grown in irradiated-cortisonised weanling rats that had been injected with epidermoid carcinoma tissue from a person's larynx, but later found to be indistinguishable from HeLa cells by PCR DNA analysis), were used for the culturing of genotype A, “Long” strain RSV. Flasks were inoculated with RSV and viral stocks were collected once cytopathic effect (CPE) was greater than 90%. Viral stocks in 25% sucrose media were snap frozen using liquid nitrogen to increase viral stability. Viral stock titers were quantified by tissue culture infectious dose 50% (TCID50) using 8,000 cells per well and 3-fold viral dilutions across a 96-well plate, cultured for 4 days. Viral stock titers were also quantified by a plaque forming unit assay, as described elsewhere.
Following extensive parameter testing, the final assay is run as follows: Hep-2 cells are seeded into the inner 60 wells of a 96-well plate at 8,000 cells per well in a volume of 50 μL using Growth Media (DMEM without phenol red, 1% L-Glut, 1% Penn/Strep, 1% nonessential amino acids, 10% heat-inactivated FBS). 2-fold serial dilutions of control and test compounds are added to the wells in duplicate in a total volume of 25 μL. Viral stock is then added to the wells at a multiplicity of infection (MOI) of 0.1 in a volume of 25 μL, bringing the total volume of each well to 100 μL. The MOI is calculated using the PFU/mL, or TCID50 if unavailable. Each 96-well plate has a control column of 6 wells with cells and virus but no compound (negative control, max CPE), a column with cells but no compound or virus (positive control, minimum CPE), and a column with no cells or virus or compound (background plate/reagent control). The control wells with cells but no virus are given an additional 25 μL of growth media containing an equal quantity of sucrose as those wells receiving the viral stock in order to keep consistent in media and volume conditions. The outer wells of the plate are filled with 125 μL of moat media (DMEM, 1% Penn/Strep) to act as a thermal and evaporative moat around the test wells. Following a 5-day incubation period, the plates are read using ATPlite (50 μL added per well), which quantifies the amount of ATP (a measure of cell health) present in each well. Assay plates are read using the Envision luminometer. In parallel, cytotoxicity is examined on an additional 96-well plate treated in an identical manner, but substituting the 25 μL of viral stock for 25 μL of growth media. […] EC50 ranges are as follows: A<0.4 μM; B 0.4-0.8 μM; C>0.8 μM.

[2] = test system: Human RSV-B (genotype B, strain 9320); assay: RSV-B assay (qPCR or ATPlite) in A549 cells; type: cell-based; conditions: human respiratory syncytial virus, 144 h, strain 9320, MOI 0.5, 6 days post infection, qPCR or ATPlite readout
From the text: Hep-2 cells, (originally derived from tumors grown in irradiated-cortisonised weanling rats that had been injected with epidermoid carcinoma tissue from a person's larynx, but later found to be indistinguishable from HeLa cells by PCR DNA analysis), were used for the culturing of genotype B, strain 9320. Flasks were inoculated with RSV-B and viral stocks were collected once cytopathic effect (CPE) was greater than 90%. Viral stocks in 25% sucrose media were snap frozen using liquid nitrogen to increase viral stability. Viral stock titers were quantified by tissue culture infectious dose 50% (TCID50) using 8,000 cells per well and 5-fold viral dilutions across a 96-well plate, cultured for 4 days. Viral stock titers were also quantified by a plaque forming unit assay, as described elsewhere.
The assay is run as follows: A549 cells (originally derived through explant culture from a person's carcinomatous lung tissue) are seeded into the inner 60 wells of a 96-well plate at 3,000 cells per well in a volume of 50 μL using A549 growth media (F-12K Media, 1% Penn/Strep, 1% nonessential amino acids, 10% heat-inactivated FBS). 2-fold serial dilutions of control and test compounds are added to the wells in duplicate in a total volume of 25 μL. Viral stock is then added to the wells at a multiplicity of infection (MOI) of 0.5 in a volume of 25 μL, bringing the total volume of each well to 100 μL. The MOI is calculated using the PFU/mL, or TCID50 if unavailable. Each 96-well plate has a control column of 6 wells with cells and virus but no compound (negative control, max CPE), a column with cells but no compound or virus (positive control, minimum CPE), and a column with no cells or virus or compound (background plate/reagent control). The control wells with cells but no virus are given an additional 25 μL of growth media containing an equal quantity of sucrose as those wells receiving the viral stock in order to keep consistent in media and volume conditions. The outer wells of the plate are filled with 125 μL of moat media (DMEM, 1% Penn/Strep) to act as a thermal and evaporative moat around the test wells. 6 days post infection, the plates are read using qPCR or ATP lite (50 μL added per well), which quantifies the amount of ATP (a measure of cell health) present in each well. Assay plates treated with APTlite are read using the Envision luminometer. […] EC50 ranges are as follows: A<0.4 μM; B 0.4-0.8 μM; C>0.8 μM.

| SMILES | EC50 [1] [µM] | EC50 [2] [µM] |
| --- | --- | --- |
| O=C1Nc2ccccc2C(c2ccccc2)=NC1Nc1nnc(-c2ncc(C(F)(F)F)cc2-c2cncnc2)o1 (centres unmarked) [Example 2] | > 0.8 | > 0.8 |
| O=C1Nc2ccccc2C(c2ccccc2)=N[C@@H]1Nc1nnc(-c2ncc(C3CC3)cc2-c2cnc(C3CC3)nc2)o1 [Example 77] | < 0.4 | < 0.4 |
| Cc1ncc(-c2sc(C(F)(F)F)nc2-c2nnc(NC3N=C(c4ccccc4)c4ccccc4NC3=O)o2)cn1 (centres unmarked) [Example 33] | < 0.4 | < 0.4 |
| Cc1ncc(-c2sc(C3CCC3)nc2-c2nnc(N[C@@H]3N=C(c4ccccc4)c4cccc(F)c4NC3=O)o2)cn1 [Example 60] | < 0.4 | < 0.4 |
| CCc1ncc(-c2sc(C3CCC3)nc2-c2nnc(N[C@@H]3N=C(c4ccccc4)c4cccc(F)c4NC3=O)o2)cn1 [Example 59] | < 0.4 | < 0.4 |
| CCc1ncc(-c2sc(C(F)(F)F)nc2-c2nnc(N[C@H]3N=C(c4ccccc4)c4cccc(F)c4NC3=O)o2)cn1 [Example 32] | < 0.4 | < 0.4 |
| O=C1Nc2ccccc2C(c2ccccc2)=NC1Nc1nnc(-c2ncc(C(F)(F)F)cc2-c2cnc(C3CC3)nc2)o1 (centres unmarked) [Example 7] | < 0.4 | < 0.4 |
| O=C1Nc2c(F)cccc2C(c2ccccc2)=N[C@H]1Nc1nnc(-c2nc(C3CC3)sc2-c2cnc(C3CC3)nc2)o1 [Example 47] | < 0.4 | < 0.4 |
| Cc1ncc(-c2cc(C(F)(F)F)cnc2-c2nnc(N[C@H]3N=C(c4ccccc4)c4cccc(F)c4NC3=O)o2)cn1 [Example 27] | < 0.4 | < 0.4 |
| C=Cc1ncc(-c2cc(C(F)(F)F)cnc2-c2nnc(NC3N=C(c4ccccc4)c4ccccc4NC3=O)o2)cn1 (centres unmarked) [Example 18] | 0.4 to 0.8 | < 0.4 |
| CCc1ncc(-c2sc(C)nc2-c2nnc(N[C@H]3N=C(c4ccccc4)c4cccc(F)c4NC3=O)o2)cn1 [Example 36] | < 0.4 | < 0.4 |
| O=C1Nc2ccccc2C(c2ccccc2)=NC1Nc1nnc(-c2cccnc2-c2cnc(C3CC3)nc2)o1 (centres unmarked) [Example 23] | > 0.8 | < 0.4 |
| CCc1ncc(-c2sc(C3(C(F)(F)F)CC3)nc2-c2nnc(N[C@H]3N=C(c4ccccc4)c4ccccc4NC3=O)o2)cn1 [Example 71] | < 0.4 | < 0.4 |
| O=C1Nc2ccccc2C(c2ccccc2)=NC1Nc1nnc(-c2ncc(C(F)(F)F)cc2-c2cnc(CF)nc2)o1 (centres unmarked) [Example 6] | < 0.4 |  |
| O=C1Nc2ccccc2C(c2ccccc2)=NC1Nc1nnc(-c2ncc(C(F)(F)F)cc2-c2cnc(C3CCC3)nc2)o1 (centres unmarked) [Example 13] | 0.4 to 0.8 | < 0.4 |
| Cc1ncc(-c2sc(C)nc2-c2nnc(N[C@H]3N=C(c4ccccc4)c4cccc(F)c4NC3=O)o2)cn1 [Example 39] | < 0.4 | < 0.4 |
| Cc1cnc(-c2nnc(N[C@H]3N=C(c4ccccc4)c4ccccc4NC3=O)o2)c(-c2cnc(C3CC3)nc2)c1 [Example 99] | < 0.4 | < 0.4 |
| O=C1Nc2ccccc2C(c2ccccc2)=NC1Nc1nnc(-c2ncc(C(F)(F)F)cc2-c2cnc(NC3CC3)nc2)o1 (centres unmarked) [Example 20] | 0.4 to 0.8 | < 0.4 |
| N#Cc1ncc(-c2cc(C(F)(F)F)cnc2-c2nnc(NC3N=C(c4ccccc4)c4ccccc4NC3=O)o2)cn1 (centres unmarked) [Example 5] | > 0.8 |  |
| Cc1nc(-c2nnc(N[C@@H]3N=C(c4ccccc4)c4cccc(F)c4NC3=O)o2)c(-c2cnc(C3CC3)nc2)s1 [Example 40] | < 0.4 | < 0.4 |
| CCc1nc(-c2nnc(N[C@H]3N=C(c4ccccc4)c4cccc(F)c4NC3=O)o2)c(-c2cnc(C3CC3)nc2)s1 [Example 54] | < 0.4 | < 0.4 |
| CCc1ncc(-c2cc(C(F)(F)F)cnc2-c2nnc(NC3N=C(c4ccccc4)c4ccccc4NC3=O)o2)cn1 (centres unmarked) [Example 8] | < 0.4 | < 0.4 |
| CCc1ncc(-c2sc(C)nc2-c2nnc(N[C@@H]3N=C(c4ccccc4)c4cccc(F)c4NC3=O)o2)cn1 [Example 37] | < 0.4 | < 0.4 |
